Laboratory results taken from paper doi:10.1101/2025.03.23.644840v2 (biorxiv, 2025).
Read-outs that look alike come from different tables or passages of the source.

Experiments:
Test in all cases: isothermal titration calorimetry
[1] = biological target: Anc3; assay type: binding, synthetic construct; details: 25 °C; 20 mM HEPES, 150 mM NaCl, 2% glycerol, pH 8; 1:1 model
[2] = biological target: ecLacI (Escherichia coli, UniProt P03023); assay type: binding
[3] = biological target: Anc1; assay type: binding, synthetic construct; details: 25 °C; 20 mM HEPES, 150 mM NaCl, 2% glycerol, pH 8; 1:1 model
[4] = biological target: Anc4; assay type: binding, synthetic construct; details: 25 °C; 20 mM HEPES, 150 mM NaCl, 2% glycerol, pH 8; 1:1 model
[5] = biological target: ΔAnc4; parameters: species or system synthetic construct; details: 25 °C; 20 mM HEPES, 150 mM NaCl, 2% glycerol, pH 8; 1:1 model
[6] = biological target: Anc2; assay type: binding, synthetic construct; details: 25 °C; 20 mM HEPES, 150 mM NaCl, 2% glycerol, pH 8; 1:1 model
[7] = biological target: ΔAnc1; parameters: species or system synthetic construct; details: 25 °C; 20 mM HEPES, 150 mM NaCl, 2% glycerol, pH 8; 1:1 model

Chain of ecLacI (P03023 whole entry): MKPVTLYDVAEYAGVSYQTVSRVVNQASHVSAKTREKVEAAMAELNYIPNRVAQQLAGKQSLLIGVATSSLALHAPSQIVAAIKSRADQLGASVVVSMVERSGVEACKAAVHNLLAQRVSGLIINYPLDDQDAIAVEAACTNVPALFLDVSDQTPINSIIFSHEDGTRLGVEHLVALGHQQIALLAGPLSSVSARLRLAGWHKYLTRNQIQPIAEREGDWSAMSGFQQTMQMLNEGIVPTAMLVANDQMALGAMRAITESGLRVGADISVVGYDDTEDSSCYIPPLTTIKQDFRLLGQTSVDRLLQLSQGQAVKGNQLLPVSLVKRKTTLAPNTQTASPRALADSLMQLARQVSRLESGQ

| SMILES | Kd [1] | Kd [2] | Kd [3] | Kd [4] | Kd [5] | Kd [6] | Kd ([2]; 25 °C, 20 mM HEPES, 150 mM NaCl, 2% glycerol, pH 8, 1:1 model) | Kd [7] |
| --- | --- | --- | --- | --- | --- | --- | --- | --- |
| CO[C@@H]1O[C@H](CO)[C@H](O)[C@H](O)[C@H]1O [BMDG] | 2500 µM | 306 µM | 4000 µM | 550 µM | 430 µM | 2200 µM | – | – |
| C[C@H]1OC(O)[C@H](O)[C@@H](O)[C@H]1O (stereo partly drawn) [D-fucose] | – | – | 127 µM | 15000 µM | – | – | 37000 µM | 420 µM |
